Reference: US8247211B2, “Glycopeptide antibiotics” (American Cyanamid Company, priority 2001, dated 2012)
Converted amounts (≈) assume the structure as drawn. Numbered stars: 1 amine (or outer) side, 2 acyl side, 3 side chain; on linkers, the order of the positions; unused ones are H or OH. Square brackets hold non-standard residues; d marks the D form. Peptide text beside a SMILES is read from it. * marks the point of attachment. ξ: configuration not given here. X1 = N=C1NCC(C(O)C(N[*:1])C(=O)[*:2])N1C1OC(CO)C(O)C(O)C1O; ξEnduracididine(βξ-OH,4'ξ) = N=C1NCC(C(O)C(N)C(=O)O)N1; X2 = OCC1OC(OC2C(CO)OC(*)C(O)C2O)C(O)C(O)C1O; Cha = N[CH](CC1CCCCC1)C(=O)O

Tests used:
Enterococcus sp. = assay: In vitro antibacterial evaluation: minimum inhibitory concentration (MIC), broth dilution method; assay type: cell-based
Method in brief: (§1)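 Inoculum: 5×10^5 CFU/mL. Range: 64-0.06 μg/mL. Medium: Muller-Hinton II […]; NCCLS M7-A2 broth dilution. Endpoint: lowest concentration inhibiting growth. Strains include methicillin-, penicillin- and/or vancomycin-resistant clinical isolates.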

Escherichia coli [1] = assay: as above; assay type: cell-based
Method in brief: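 Values are minimum inhibitory concentrations, meaning the smallest antibiotic concentration that stops growth of the organism. They come from broth dilution in Muller-Hinton II […] per NCCLS guidance (M7-A2), using 5×10^5 CFU/mL and concentrations from 64 to 0.06 μg/mL.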

Staphylococcus sp. = assay: as above; assay type: cell-based; conditions: 18 hours at 35° C.
Method in brief: as §1

Streptococcus sp. = assay: as above; assay type: cell-based; conditions: 18 hours at 35° C.
Method in brief: as §1

[2] = test system: Staphylococcus aureus-SMITH (GC 4543); assay: Acute lethal infection in mice (ED50); assay type: in vivo; conditions: female CD-1 mice, intraperitoneal challenge, intravenous dose 30 min. after infection, 7 day survival ratios
Method in brief: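 IP bacterial challenge, female CD-1 mice; inoculum lethal to untreated controls in 24-48 hr. IV dosing in saline or 5% dextrose 30 min post-infection, 5 mice/dose. ED50 from 7-day survival, 3 tests pooled.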

[3] = Anatomic pathology (heart and kidney histopathology) in mice; assay type: in vivo, CD-1 mice; conditions: 20 mg/kg intravenously daily for 9 days, microscopic histopathology on day 10
Method in brief: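 Histopathology on H&E-stained, paraffin-embedded sections, subjectively scored (slight, mild, moderate, marked, severe) relative to untreated controls. Dosing: glycopeptide antibiotics 20 mg/kg intravenously once daily ×9 days in 20-day-old CD-1 mice, n=5 per group including vehicle.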

Escherichia coli [4] = assay: In vitro antibacterial evaluation: minimum inhibitory concentration (MIC), broth dilution method; assay type: cell-based; remark: listed apart in the source
[5] = assay type: in vivo; conditions: mice, 20 mg/kg intravenously daily for 9 days, serum on day 10
Procedure: 20-day-old CD-1 mice were divided into a vehicle control group (5 mice) and a treatment group (5 mice). Samples of glycopeptide antibiotics were administered at 20 mg/kg intravenously daily for 9 days. Animals were necropsied on day 10 Sera were analyzed for BUN (blood urea nitrogen), creatinine, AST (aspartic aminotransferase), and ALT (alanine aminotransferase) by routine, standard, automated methods using an Hitachi 747 chemistry analyzer.

N=C1NCC(C(O)C2NC(=O)C(Cc3ccc(OC4OC(CO)C(OC5OC(CO)C(O)C(O)C5O)C(O)C4O)cc3)NC(=O)C(CC3CCCCC3)NC(=O)CNC(=O)C(CO)NC(=O)C(C(O)C3CNC(=N)N3C3OC(CO)C(O)C(O)C3O)NC2=O)N1 (stereo not drawn) [Example 263, Cyclo[3-cyclohexylalanyl-O-(4-O-hexopyranosylhexopyranosyl)tyrosyl-3-(2-iminoimidazolidin-4-yl)seryl-3-(3-hexopyranosyl-2-iminoimidazolidin-4-yl)serylserylglycyl]] (cyclo(G[Cha]Y(X2)[ξEnduracididine(βξ-OH,4'ξ)][X1]S); configuration not given here)
MIC Enterococcus avium (GC 4558) (Enterococcus sp.): >64 µg/mL | MIC Enterococcus faecalis (ATCC 29212) (Enterococcus sp.): >64 µg/mL | MIC Enterococcus faecalis (GC 2242) (Enterococcus sp.; Enterococcus faecalis (GC 2242), 18 hours at 35° C.): >64 µg/mL | MIC Enterococcus faecalis (GC 4552) (Enterococcus sp.; Enterococcus faecalis (GC 4552), 18 hours at 35° C.): >64 µg/mL | MIC Enterococcus faecalis (GC 4553) (Enterococcus sp.): >64 µg/mL | MIC Enterococcus faecalis (GC 4554) (Enterococcus sp.): >64 µg/mL | MIC Enterococcus faecium (GC 2243) (Enterococcus sp.): >64 µg/mL | MIC Enterococcus faecium (GC 4556) (Enterococcus sp.): >64 µg/mL | MIC Enterococcus faecium (GC 4557) (Enterococcus sp.): 32 µg/mL (≈ 24.9 µM) | MIC Escherichia coli (GC 4559) (Escherichia coli [1]): >64 µg/mL | MIC Escherichia coli (GC 4560) (Escherichia coli [1]): 16 µg/mL (≈ 12.4 µM) | MIC Coagulase Negative Staphylococcus (GC 4547) (Staphylococcus sp.): 64 µg/mL (≈ 49.7 µM) | MIC Coagulase Negative Staphylococcus (GC 4547) (Staphylococcus sp.; broth dilution): 64 µg/mL (≈ 49.7 µM) | MIC Coagulase Negative Staphylococcus (GC 4548) (Staphylococcus sp.): 32 µg/mL (≈ 24.9 µM) | MIC Coagulase Negative Staphylococcus (GC 4548) (Staphylococcus sp.; broth dilution): 32 µg/mL (≈ 24.9 µM) | MIC Coagulase Negative Staphylococcus (GC 4549) (Staphylococcus sp.): 16 µg/mL (≈ 12.4 µM) | MIC Coagulase Negative Staphylococcus (GC 4549) (Staphylococcus sp.; broth dilution): 16 µg/mL (≈ 12.4 µM) | MIC Coagulase Negative Staphylococcus (GC 4551) (Staphylococcus sp.): 64 µg/mL (≈ 49.7 µM) | MIC Coagulase Negative Staphylococcus (GC 4551) (Staphylococcus sp.; broth dilution): 64 µg/mL (≈ 49.7 µM) | MIC Staphylococcus aureus (ATCC 29213) (Staphylococcus sp.): 64 µg/mL (≈ 49.7 µM) | MIC Staphylococcus aureus (ATCC 29213) (Staphylococcus sp.; broth dilution): 64 µg/mL (≈ 49.7 µM) | MIC Staphylococcus aureus (GC 1131) (Staphylococcus sp.): 64 µg/mL (≈ 49.7 µM) | MIC Staphylococcus aureus (GC 1131) (Staphylococcus sp.; broth dilution): 64 µg/mL (≈ 49.7 µM) | MIC Staphylococcus aureus (GC 4541) (Staphylococcus sp.): 64 µg/mL (≈ 49.7 µM) | MIC Staphylococcus aureus (GC 4541) (Staphylococcus sp.; broth dilution): 64 µg/mL (≈ 49.7 µM) | MIC Staphylococcus aureus (GC 4542) (Staphylococcus sp.): 64 µg/mL (≈ 49.7 µM) | MIC Staphylococcus aureus (GC 4542) (Staphylococcus sp.; broth dilution): 64 µg/mL (≈ 49.7 µM) | MIC Staphylococcus aureus (GC 4544) (Staphylococcus sp.): >64 µg/mL | MIC Staphylococcus aureus (GC 4544) (Staphylococcus sp.; broth dilution): >64 µg/mL | MIC Staphylococcus aureus (GC 4545) (Staphylococcus sp.): 64 µg/mL (≈ 49.7 µM) | MIC Staphylococcus aureus (GC 4545) (Staphylococcus sp.; broth dilution): 64 µg/mL (≈ 49.7 µM) | MIC Staphylococcus aureus-SMITH (GC 4543) (Staphylococcus sp.): 32 µg/mL (≈ 24.9 µM) | MIC Staphylococcus aureus-SMITH (GC 4543) (Staphylococcus sp.; broth dilution): 32 µg/mL (≈ 24.9 µM) | MIC Staphylococcus haemolyticus (GC 4546) (Staphylococcus sp.): 32 µg/mL (≈ 24.9 µM) | MIC Staphylococcus haemolyticus (GC 4546) (Staphylococcus sp.; broth dilution): 32 µg/mL (≈ 24.9 µM) | MIC Streptococcus agalactiae (GC 4564) (Streptococcus sp.; Streptococcus agalactiae (GC 4564)): 32 µg/mL (≈ 24.9 µM) | MIC Streptococcus pyogenes (ID-3187) (Streptococcus sp.; Streptococcus pyogenes (ID-3187)): 32 µg/mL (≈ 24.9 µM) | median effective dose (ED50), Staphylococcus aureus-SMITH (GC 4543) [2]: >8 | Anatomical Pathology (Day 10), Heart [3]: + | Anatomical Pathology (Day 10), Kidney [3]: ++ | MIC Escherichia coli (ATCC 25922) (Escherichia coli [4]): >64 µg/mL

CC(c1ccccc1)C1NC(=O)CNC(=O)C(CO)NC(=O)C(CC2CNC(=N)N2C2OC(CO)C(O)C(O)C2O)NC(=O)C(CC2CNC(=N)N2)NC(=O)C(Cc2ccc(OC3OC(CO)C(OC4OC(CO)C(O)C(O)C4O)C(O)C3O)cc2)NC1=O (stereo not drawn) [Example 277a, Cyclo[3-(2-iminoimidazolidin-4-yl)alanyl-3-(3-hexopyranosyl-2-iminoimidazolidin-4-yl)-alanylserylglycyl-β-methylphenylalanyl-O-(4-O-hexopyranosylhexopyranosyl]tyrosyl]]
median effective dose (ED50), Staphylococcus aureus-SMITH (GC 4543) [2]: >8 | Clinical Chemistry (Day 10) % of Control, BUN [5]: +110% | Anatomical Pathology (Day 10), Heart [3]: 0 | Anatomical Pathology (Day 10), Kidney [3]: ++

CC(C)CC(=O)OC1C(OC2C(CO)OC(Oc3ccc(CC4NC(=O)C(C(C)c5ccccc5)NC(=O)CNC(=O)C(CO)NC(=O)C(CC5CNC(=N)N5C5OC(CO)C(O)C(O)C5O)NC(=O)C(CC5CNC(=N)N5)NC4=O)cc3)C(O)C2O)OC(CO)C(O)C1O (stereo not drawn) [Example 277b]
MIC Enterococcus avium (GC 4558) (Enterococcus sp.): >64 µg/mL | MIC Enterococcus faecalis (ATCC 29212) (Enterococcus sp.): >64 µg/mL | MIC Enterococcus faecalis (GC 4553) (Enterococcus sp.): >64 µg/mL | MIC Enterococcus faecalis (GC 4554) (Enterococcus sp.): >64 µg/mL | MIC Enterococcus faecalis (GC 6189) (Enterococcus sp.; Enterococcus faecalis (GC 6189)): >64 µg/mL | MIC Enterococcus faecium (GC 2243) (Enterococcus sp.): >64 µg/mL | MIC Enterococcus faecium (GC 4556) (Enterococcus sp.): >64 µg/mL | MIC Enterococcus faecium (GC 4557) (Enterococcus sp.): >64 µg/mL | MIC Escherichia coli (GC 4559) (Escherichia coli [1]): >64 µg/mL | MIC Escherichia coli (GC 4560) (Escherichia coli [1]): 32 µg/mL (≈ 23.7 µM) | MIC Coagulase Negative Staphylococcus (GC 4547) (Staphylococcus sp.): >64 µg/mL | MIC Coagulase Negative Staphylococcus (GC 4547) (Staphylococcus sp.; broth dilution): >64 µg/mL | MIC Coagulase Negative Staphylococcus (GC 4548) (Staphylococcus sp.): >64 µg/mL | MIC Coagulase Negative Staphylococcus (GC 4548) (Staphylococcus sp.; broth dilution): >64 µg/mL | MIC Coagulase Negative Staphylococcus (GC 4549) (Staphylococcus sp.): >64 µg/mL | MIC Coagulase Negative Staphylococcus (GC 4549) (Staphylococcus sp.; broth dilution): >64 µg/mL | MIC Coagulase Negative Staphylococcus (GC 4551) (Staphylococcus sp.): >64 µg/mL | MIC Coagulase Negative Staphylococcus (GC 4551) (Staphylococcus sp.; broth dilution): >64 µg/mL | MIC Coagulase Negative Staphylococcus (GC 6257) (Staphylococcus sp.): >64 µg/mL | MIC Coagulase Negative Staphylococcus (GC 6257) (Staphylococcus sp.; broth dilution): >64 µg/mL | MIC Staphylococcus aureus (ATCC 29213) (Staphylococcus sp.): >64 µg/mL | MIC Staphylococcus aureus (ATCC 29213) (Staphylococcus sp.; broth dilution): >64 µg/mL | MIC Staphylococcus aureus (GC 1131) (Staphylococcus sp.): >64 µg/mL | MIC Staphylococcus aureus (GC 1131) (Staphylococcus sp.; broth dilution): >64 µg/mL | MIC Staphylococcus aureus (GC 3051) (Staphylococcus sp.): >64 µg/mL | MIC Staphylococcus aureus (GC 3051) (Staphylococcus sp.; broth dilution): >64 µg/mL | MIC Staphylococcus aureus (GC 3053) (Staphylococcus sp.): >64 µg/mL | MIC Staphylococcus aureus (GC 3053) (Staphylococcus sp.; broth dilution): >64 µg/mL | MIC Staphylococcus aureus (GC 4541) (Staphylococcus sp.): >64 µg/mL | MIC Staphylococcus aureus (GC 4541) (Staphylococcus sp.; broth dilution): >64 µg/mL | MIC Staphylococcus aureus (GC 4542) (Staphylococcus sp.): >64 µg/mL | MIC Staphylococcus aureus (GC 4542) (Staphylococcus sp.; broth dilution): >64 µg/mL | MIC Staphylococcus aureus (GC 4544) (Staphylococcus sp.): >64 µg/mL | MIC Staphylococcus aureus (GC 4544) (Staphylococcus sp.; broth dilution): >64 µg/mL | MIC Staphylococcus aureus (GC 4545) (Staphylococcus sp.): >64 µg/mL | MIC Staphylococcus aureus (GC 4545) (Staphylococcus sp.; broth dilution): >64 µg/mL | MIC Staphylococcus aureus-SMITH (GC 4543) (Staphylococcus sp.): >64 µg/mL | MIC Staphylococcus aureus-SMITH (GC 4543) (Staphylococcus sp.; broth dilution): >64 µg/mL | MIC Staphylococcus haemolyticus (GC 4546) (Staphylococcus sp.): >64 µg/mL | MIC Staphylococcus haemolyticus (GC 4546) (Staphylococcus sp.; broth dilution): >64 µg/mL | median effective dose (ED50), Staphylococcus aureus-SMITH (GC 4543) [2]: >8 | Anatomical Pathology (Day 10), Heart [3]: 0 | Anatomical Pathology (Day 10), Kidney [3]: + | MIC Escherichia coli (ATCC 25922) (Escherichia coli [4]): >64 µg/mL

CC(C)CC(=O)OCC1OC(OC2C(CO)OC(Oc3ccc(CC4NC(=O)C(C(C)c5ccccc5)NC(=O)CNC(=O)C(CO)NC(=O)C(CC5CNC(=N)N5C5OC(CO)C(O)C(O)C5O)NC(=O)C(CC5CNC(=N)N5)NC4=O)cc3)C(O)C2O)C(O)C(O)C1O (stereo not drawn) [Example 277c]
Clinical Chemistry (Day 10) % of Control, AST [5]: +253%
